Test results from patent publication US20090176817A1, “Method of Treatment of Diarrhea-Predominant Irritable Bowel Syndrome in a Subject” (priority 2005, published 2009).
Marks after values point to notes of the source that are not given here.

Columns and labels:
[1] = Study S241.1.111: relative bioavailability and food effect, 2 mg tablet vs oral solution; format: in vivo, human; conditions: for Tmax: median
Procedure: Subjects were randomized to receive a cilansetron 2 mg tablet after an overnight fast, a cilansetron 2 mg tablet after a high-fat breakfast, and a cilansetron 2 mg oral solution after an overnight fast during the three treatment periods, with a 7-day washout between periods. Serial blood sampling was performed up to 24 hours following each treatment, and plasma pharmacokinetics parameters for cilansetron and its metabolites, (4R)-hydroxy cilansetron and (4S)-hydroxy cilansetron, were estimated. FIG. 4, FIG. 5, and FIG. 6 present mean plasma concentration-time profiles for cilansetron and its metabolites following treatment with the cilansetron tablet and oral solution. Table 2.7.1.2.2 presents descriptive statistics for the pharmacokinetic parameters of cilansetron and its metabolites for the tablet and oral solution, and the results of statistical comparisons between treatments (tablet versus solution).
Subjects were randomized to receive a cilansetron 2 mg tablet after an overnight fast, a cilansetron 2 mg tablet after a high-fat breakfast, and a cilansetron 2 mg oral solution after an overnight fast during the three treatment periods, with a 7-day washout between periods. Serial blood sampling was performed up to 24 hours following each treatment and plasma pharmacokinetics parameters for cilansetron and its metabolites, (4R)-hydroxy cilansetron and (4S)-hydroxy cilansetron, were estimated. FIG. 7, FIG. 8, and FIG. 9 present mean plasma concentration-time profiles for cilansetron and its metabolites following treatment with the cilansetron tablet under fasted conditions and following a high-fat meal. Table 2.7.1.2.4 presents descriptive statistics for the pharmacokinetic parameters of cilansetron and its metabolites for the tablet under fed and fasted conditions, and the results of statistical comparisons between treatments (fed versus fasted).

[2] = Study S.241.1.109: single and multiple dose pharmacokinetics 2 mg TID; format: in vivo, human; conditions: for Tmax: median (min, max)
Procedure: In an open-label, randomized, parallel-group study in 36 healthy, male and female subjects (19-45 years), subjects received a 2 mg single dose of cilansetron on Day 1 and 2 mg TID on Days 2-7. The morning doses on Days 1 and 7 were administered immediately after a standard breakfast. Serial blood samples for the measurement of single-dose and steady-state pharmacokinetics of cilansetron and its main metabolites, (4R)-hydroxy cilansetron and (4S)-hydroxy cilansetron, were collected on Day 1 (single dose) up to 24 hours postdose and on Day 7 (multiple dose) up to 8 hours postdose.

human 5-HT3 receptor = molecular target: T1, human 5-HT3 receptor (Homo sapiens, UniProt P46098); assay: 5-HT3 receptor binding
T1 sequence (P46098 24-478): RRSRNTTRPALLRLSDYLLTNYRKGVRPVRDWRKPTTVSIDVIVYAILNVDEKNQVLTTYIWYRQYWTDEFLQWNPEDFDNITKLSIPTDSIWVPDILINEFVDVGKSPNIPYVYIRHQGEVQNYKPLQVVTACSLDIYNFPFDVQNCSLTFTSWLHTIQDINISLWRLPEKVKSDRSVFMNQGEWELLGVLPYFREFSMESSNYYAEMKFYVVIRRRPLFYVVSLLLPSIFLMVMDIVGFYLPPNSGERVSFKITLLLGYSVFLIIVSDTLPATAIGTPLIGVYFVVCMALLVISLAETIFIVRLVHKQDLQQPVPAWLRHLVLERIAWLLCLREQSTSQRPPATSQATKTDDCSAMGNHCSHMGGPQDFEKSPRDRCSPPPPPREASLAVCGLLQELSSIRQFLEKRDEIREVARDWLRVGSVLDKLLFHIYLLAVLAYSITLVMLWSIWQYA

[3] = Study S.241.1.109: interaction with paroxetine 20 mg QD; format: in vivo, human; conditions: for AUC(0-τ) / Cmax / Tmax: steady state; for AUC(0-τ): AUC(0-8); for AUC(0-τ) / Cmax: arith. mean; for Tmax: median
Procedure: (§1) In an open-label, randomized, parallel-group study in three groups of 12 healthy, male and female subjects (aged 19 to 45 years), subjects received a 2 mg single dose of cilansetron on Day 1, 2 mg TID on Days 2-13, and a 2 mg single dose on Day 14. […] All morning doses of cilansetron and enzyme inhibitors were administered immediately after a standard breakfast. […] For each treatment group, log-transformed cilansetron AUC(0-τ) and Cmax values on Day 14 (cilansetron+enzyme inhibitor) were compared statistically versus values on Day 7 (cilansetron alone).
FIG. 50, FIG. 51, and FIG. 52 present geometric mean steady-state plasma concentration-time profiles for cilansetron and its 4-hydroxy metabolites in the absence and presence of concomitant paroxetine. […] These increases in exposure are not clinically significant.

[4] = Study S.241.1.109: interaction with fluvoxamine 50 mg QD; format: in vivo, human; conditions: for AUC(0-τ) / Cmax / Tmax: steady state; for AUC(0-τ): AUC(0-8); for AUC(0-τ) / Cmax: arith. mean; for Tmax: median
Procedure: as §1
FIG. 42, FIG. 43, and FIG. 44 present geometric mean steady-state plasma concentration-time profiles for cilansetron and its 4-hydroxy metabolites in the absence and presence of concomitant fluvoxamine.

[5] = 2 mg tablet, fasted, single dose
[6] = Cilansetron 2 mg TID + Paroxetine 20 mg QD
[7] = Cilansetron 2 mg TID alone (paroxetine group)
[8] = cilansetron + paroxetine / cilansetron alone, ANOVA of log-transformed data
[9] = Cilansetron 2 mg TID + Fluvoxamine 50 mg once daily
[10] = Cilansetron 2 mg TID alone (fluvoxamine group)
[11] = cilansetron + fluvoxamine / cilansetron alone, ANOVA of log-transformed data

For `Cc1nccn1CC1CCc2c(c3cccc4c3n2CC[C@H]4O)C1=O` (stereo partly drawn) [(4R)-hydroxy cilansetron], which “AUC(0-inf)” value ([1]; 2 mg oral solution, fasted) is on record?
The value was 14.3 (26) ng · h/mL.

What about the “AUC(0-last)” value ([1]; 2 mg oral solution, fasted) of the same molecule?
The value was 13.5 (27) ng · h/mL.

And the Cmax ([1]; 2 mg oral solution, fasted)?
Its Cmax is 2.82 (26) ng/mL.

What about the T½ ([1]; 2 mg oral solution, fasted) of the same molecule?
Its T½ is 3.90 (19) h.

What about the Tmax ([1]; 2 mg oral solution, fasted) of the same molecule?
Its Tmax is 1.00 h.

What about the “AUC(0-inf)” value [1, 5] of the same molecule?
The value was 14.4 (25) ng · h/mL.

And the “AUC(0-last)” value [1, 5]?
The value was 13.7 (26) ng · h/mL.

What about the Cmax [1, 5] of the same molecule?
The Cmax was 2.87 (20) ng/mL.

What about the T½ [1, 5] of the same molecule?
The T½ was 3.90 (22) h.

And the Tmax ([1]; 2 mg tablet, fasted)?
Its Tmax is 1.25 h.

What about the “AUC(0-inf)” value ([1]; 2 mg tablet, fed) of the same molecule?
The value was 13.6 (26) ng · h/mL.

What about the Cmax ([1]; 2 mg tablet, fed) of the same molecule?
Its Cmax is 2.23 (26) ng/mL.

What about the T½ ([1]; 2 mg tablet, fed) of the same molecule?
The T½ was 4.46 (31) h.

And the “AUC(0-last)” value ([1]; 2 mg tablet, fed (high-fat breakfast))?
The value was 12.8 (27) ng · h/mL.

And the Tmax ([1]; 2 mg tablet, fed)?
Its Tmax is 1.75 h.

What about the “AUC(0-τ)” value ([2]; 2 mg TID, Day 7) of the same molecule?
The value was 12.9 (18) ng · h/mL.

And the Cmax ([2]; 2 mg TID, Day 7)?
The Cmax was 2.66 (22) ng/mL.

What about the “AUC(0-inf)” value ([2]; 2 mg single dose, Day 1) of the same molecule?
Its value is 11.7 (18) ng · h/mL.

And the “AUC(0-τ)” value ([2]; 2 mg single dose, Day 1)?
Its value is 8.43 (21) ng · h/mL.

What about the Cmax ([2]; 2 mg single dose, Day 1) of the same molecule?
Its Cmax is 1.92 (27) ng/mL.

What about the T½ ([2]; 2 mg single dose, Day 1) of the same molecule?
The T½ was 3.89 (15) h.

And the “AUC accumulation ratio Day 7/Day 1” value ([2]; AUC(0-τ))?
Its value is 147^d %.

And the “Linearity Ratio” value ([2]; AUC(0-τ) Day 7 to AUC(0-inf) Day 1)?
The value was 107%.

What about the Tmax ([2]; Day 1) of the same molecule?
The Tmax was 2.00 (0.50, 4.00)^b h.

What about the “Accumulation following TID dosing (mean increase)” value ([2]; Day 7:Day 1, AUC(0-τ) and Cmax) of the same molecule?
The value was 35-47%.

And the Tmax ([2]; Day 7)?
The Tmax was 2.00 (0.75, 4.00)^b h.

What about the “Time of peak concentration” value ([2]; after cilansetron dosing) of the same molecule?
Its value is “approximately 2 hours”.

And the half-life ([2]; approximate mean)?
Its half-life is “approximately 4 hours”.

What about the “AUC(0-τ) (Day 7) to AUC(0-inf) (Day 1) mean ratio” value ([2]; human, in vivo) of the same molecule?
The value was 1.07.

What about the “Cmax accumulation ratio Day 7/Day 1” value ([2]; human, in vivo) of the same molecule?
Its value is 135^e %.

And the pKi (human 5-HT3 receptor)?
The pKi was 8.5.

What about the “AUC(0-τ)” value [3, 6] of the same molecule?
Its value is 15.2 ng·h/mL.

What about the Cmax [3, 6] of the same molecule?
Its Cmax is 3.41 ng/mL.

What about the Tmax [3, 6] of the same molecule?
The Tmax was 1.50 h.

What about the “AUC(0-τ)” value [3, 7] of the same molecule?
Its value is 13.5 ng·h/mL.

And the Cmax [3, 7]?
Its Cmax is 2.76 ng/mL.

And the Tmax [3, 7]?
The Tmax was 2.50 h.

And the “AUC(0-τ) Ratio (Treatment B/A)” value [3, 8]?
The value was 116%.

What about the “Cmax Ratio (Treatment B/A)” value [3, 8] of the same molecule?
Its value is 127%.

And the “Mean AUC increase with paroxetine” value ([3]; human, in vivo)?
The value was 16%.

And the “Mean Cmax increase with paroxetine” value ([3]; human, in vivo)?
Its value is 27%.

What about the “AUC(0-τ)” value [4, 9] of the same molecule?
The value was 9.57 ng·h/mL.

And the Cmax [4, 9]?
The Cmax was 1.63 ng/mL.

And the Tmax [4, 9]?
The Tmax was 0.75 h.

What about the “AUC(0-τ)” value [4, 10] of the same molecule?
Its value is 12.9 ng·h/mL.

And the Cmax [4, 10]?
The Cmax was 2.74 ng/mL.

What about the Tmax [4, 10] of the same molecule?
The Tmax was 1.75 h.

What about the “AUC(0-τ) Ratio (Treatment B/A)” value [4, 11] of the same molecule?
Its value is 76%.

And the “Cmax Ratio (Treatment B/A)” value [4, 11]?
The value was 60%.

What about the “Mean AUC decrease with fluvoxamine” value ([4]; human, in vivo) of the same molecule?
Its value is 24%.

And the “Mean Cmax decrease with fluvoxamine” value ([4]; human, in vivo)?
The value was 40%.
